Measured values from BigSolDB 2.1.

CN1CCN(C2=Nc3cc(Cl)ccc3Nc3ccccc32)CC1
solubility (mole fraction)
Conditions | 278.15 K | 283.15 K | 288.15 K | 293.15 K | 298.15 K | 303.15 K | 308.15 K | 313.15 K | 318.15 K | 323.15 K
in 2-butanone | 0.0216 | 0.0242 | 0.0274 | 0.0303 | 0.0339 | 0.0374 | 0.0416 | 0.0458 | 0.0505 | 0.0558
in DMF | 0.0953 | 0.1 | 0.106 | 0.112 | 0.117 | 0.123 | 0.129 | 0.135 | 0.141 | 0.148
in THF | 0.0624 | 0.0668 | 0.0716 | 0.0765 | 0.0815 | 0.0866 | 0.0919 | 0.0978 | 0.103 | 0.109
in acetone | 0.0116 | 0.0133 | 0.0151 | 0.0172 | 0.0197 | 0.0223 | 0.0251 | 0.0283 | 0.0323 | 0.0363
in acetonitrile | 0.00213 | 0.00234 | 0.0026 | 0.00285 | 0.00316 | 0.00344 | 0.0038 | 0.00413 | 0.00452 | 0.0049
in chloroform | 0.0625 | 0.0652 | 0.0681 | 0.0712 | 0.0741 | 0.0771 | 0.0801 | 0.0837 | 0.0871 | 0.0905
in ethanol | 0.00533 | 0.0059 | 0.0066 | 0.00735 | 0.00811 | 0.0089 | 0.00988 | 0.0108 | 0.0119 | 0.0131
in ethyl acetate | 0.0109 | 0.0121 | 0.0135 | 0.0152 | 0.0169 | 0.0191 | 0.0209 | 0.0232 | 0.0256 | 0.0283
in ethyl formate | 0.032 | 0.0343 | 0.0367 | 0.0393 | 0.0419 | 0.0443 | 0.047 | 0.0499 | 0.0527 | 0.0564
in isobutanol | 0.00666 | 0.00731 | 0.00809 | 0.00888 | 0.00987 | 0.0108 | 0.0119 | 0.013 | 0.0142 | 0.0155
in isopentanol | 0.0083 | 0.00932 | 0.0103 | 0.0116 | 0.0128 | 0.0142 | 0.0156 | 0.0173 | 0.019 | 0.0212
in isopropanol | 0.00278 | 0.00322 | 0.00367 | 0.00419 | 0.00487 | 0.00544 | 0.00615 | 0.00693 | 0.00781 | 0.00894
in methanol | 0.00633 | 0.00702 | 0.00766 | 0.00839 | 0.00921 | 0.00999 | 0.0109 | 0.012 | 0.013 | 0.014
in methyl acetate | 0.0124 | 0.0141 | 0.0158 | 0.0173 | 0.019 | 0.021 | 0.0229 | 0.0251 | 0.0277 | 0.0303
in n-butanol | 0.00796 | 0.00891 | 0.01 | 0.0113 | 0.0126 | 0.0141 | 0.0154 | 0.0172 | 0.0189 | 0.0208
in n-pentanol | 0.00905 | 0.0102 | 0.0115 | 0.0128 | 0.0143 | 0.0159 | 0.0174 | 0.0193 | 0.0213 | 0.0231
in n-propanol | 0.00708 | 0.00814 | 0.00924 | 0.0105 | 0.0118 | 0.0134 | 0.0148 | 0.0164 | 0.0183 | 0.0204
in sec-butanol | 0.0046 | 0.00509 | 0.00566 | 0.00617 | 0.0068 | 0.00744 | 0.00812 | 0.00893 | 0.00975 | 0.0107
